# Patent publication US9126060B2, “Cosmetic use of geranylgeranyl-2-propanol” (SEDERMA, priority 2010, dated 2015)
# Tests used:
# [1] = Lipidic peroxidation of liposomes by UVA (conjugated dienes at 233 nm); format: biochemical
# From the text: Principle: Cell membranes are composed of oxidable phospholipids. Using a cell-free model (unsaturated phospholipids based liposomes) and a reproducible oxidative stress (UVA radiation), it is possible to follow spectrophotometrically (at 233 nm) the formation of early by-products of lipoperoxidation that are conjugated dienes. An anti-lipoperoxidant agent can reduce or even eliminate this phenomenon.
# stratum corneum = assay: Ex vivo lipoperoxidation of stratum corneum extracts from volunteers (8-isoprostanes ELISA); format: in vivo, human; settings: cream containing 0.04% of GGP 2 times daily for 2 months on forearm; compared with placebo extracts; H2O2/FeCl2 stress; 13 volunteers
# From the text: Lipids of the stratum corneum are the primary targets of free radical aggressions. Thus, it seemed interesting to test the antiradical capacity of the GGP in ex vivo condition on extracts of stratum corneum from volunteers who applied for 2 months, on one arm a placebo cream and on the other arm the GGP cream (Formulation 2/2 in the examples given above). These extracts are stressed to oxidize lipids. A lower oxidation in skin extracts which were in contact with the GGP is seeked.
# Principle: 13 volunteers have applied 2 times daily for 2 months in a randomized manner the cream containing 0.04% of GGP on one forearm. The placebo cream was applied controlateral. Each subject was therefore their own control. At T0 and T2, specimens of stratum corneum were taken on the 2 arms with 3 adhesive discs per aim, and for each disk 15 take off (saturation of the disk).
# The disks were stored at −20° C. until lipoperoxidation testing. After rapid thawing at room temperature, the 3 discs from the same arms were collected and sonicated in a suitable diluent, to take off and recover the maximum amount of stratum corneum samples. The resulting suspension was then stressed overnight at 45° C., using a H2O2/FeCl2 solution. The lipid peroxidation was assessed by measuring 8-isoprostanes (ELISA assay). The data were normalized using a protein assay.
# fibroblasts (FHN) = assay: Intracellular peroxide level (DCFH-DA probe) in fibroblasts after SIPS; format: cell-based, human; settings: 3 ppm
# Procedure: Principle: Fibroblasts at confluence contacted or not with the GGP for several days, are subjected to oxidative stress by hydrogen peroxide in the presence or absence of the GGP. This stress is intended to induce premature senescence in cells.
# After this initial stress, the cells were detached from the support and returned to culture at low density until confluence. They are then contacted or not with the compound of the invention for 24 hours. At this stage, each set of cultures (with or without the tested compounds) is divided into 2 lots. A first batch (not stressed) is evaluated directly for its concentration of intracellular peroxides (using the probe DCFH-DA). Simultaneously, the other batch (stressed) undergoes a second stress by hydrogen peroxide (weaker than the first) just before being evaluated in the same way regarding the concentration of intracellular peroxides.
# The amount of fluorescence measured with this probe is directly proportional to the amount of peroxides present in the cells.
# human dermal fibroblasts [2] = assay: ATP synthesized by fibroblasts in premature senescence after oxidizing stress (chemiluminescence); format: cell-based; settings: for ATP: after hydrogen peroxide stress
# Procedure: Principle: human dermal fibroblasts at confluence received the GGP for 24 h. After this phase, they were treated with hydrogen peroxide in the presence or absence of the GGP. This stress is intended to induce premature senescence (SIPS) in cells and thus a decrease in ATP synthesis. A few hours after this stress, cells were lysed and the amount of intracellular ATP was assessed by chemiluminescence. This amount of ATP was divided by the amount of intracellular proteins.
# β-galactosidase = assay: Cell-free β-galactosidase inhibition check; format: biochemical; settings: cell-free system
# fibroblasts = assay: DNA array gene expression on fibroblasts; format: cell-based
# hyaluronic acid = assay: Hyaluronic acid synthesis in human fibroblasts; format: cell-based; settings: for hyaluronic acid (AH): 24 hours, n = 5
# Procedure: Principle: Human dermal fibroblasts were grown in plate for 24 hours. The cells are then placed in contact or not with GGP for 24 hours. Culture supernatants were collected and assayed for the amount of hyaluronic acid (HA) is then divided by the number of cells present on the layer. TGF-β1 is used as a positive control.
# human dermal fibroblasts [3] = assay: Collagen gel contraction by human dermal fibroblasts cultivated until presenescence; format: cell-based; settings: for Gel heterogeneity / Gel surface: n = 5
# From the text: Principle: Proliferative human dermal fibroblasts were cultivated with or without the GGP over several generations to obtain presenescent cells. A constant number of cells from each case was then included in a collagen gel. The contractile capacity of cells was then followed by using photographs. Quantification by image analysis, focused on the intensity of the contraction (gel surface) and the contraction quality (gel heterogeneity).
# decorin = assay: Decorin biosynthesis in fibroblast culture (ELISA); format: cell-based, human; settings: for Decorin: 3 days, n = 5
# Procedure: Principle: Normal human fibroblasts were brought to confluence, then contacted or not with GGP at 3, 5 or 7 ppm for 3 days. After this incubation, decorin content was assayed by ELISA in cell homogenates, and then divided by the number of cells.
# Keratinocytes = assay: Keratinocyte culture survival and recovery after UVB stress (cell count); format: cell-based; settings: for Cell number, mean (n = 3): UVB 50 mJ/cm^2, six days later
# Procedure: Keratinocytes in monolayer, after an UVB radiation (12 to 240 mJ/cm^2), develop on their surface many burgeons, detach from the culture medium, undergo damages up to death. A cell count at various times after UVB radiation is used to evaluate the cell viability of the culture. This model is widely used in cosmetics to evaluate the protective effect of various compounds against the deleterious effects of UVB stress.
# Principle: Keratinocytes were cultured in 35 mm dish. Just at confluence, the cells are contacted or not with the GGP for 24 hours. UVB irradiation (50 mJ/cm^2) is performed the next day, and the cells are or not contacted with the GGP. Six days later, the cells are counted to determine the cell viability in culture.
# nidogen 1 = assay: Nidogen 1 biosynthesis in fibroblast culture (ELISA); format: cell-based, human; settings: 3 days, n = 5
# Procedure: Principle: Normal human fibroblasts were brought to confluence, then placed or not in contact with the GGP, at 1 or 2.5 ppm, for 3 days. After this incubation the nidogen 1 content is determined by ELISA in cell homogenates, and divided by the number of cells.
# [4] = after 3, 6 and 24 hours of contact
# [5] = after 6 and 24 hours of contact
smiles,measurement,setting,value
"CC(C)=CCC/C(C)=C/CC/C(C)=C/CC/C(C)=C/CCC(C)O (stereo not shown) [GGP, 6,10,14,18-tetramethylnonadeca-5,9,13,17-tetraen-2-ol]",% of peroxidation inhibition,[1]; 8 ppm,14%
same,% of peroxidation inhibition,[1]; 26 ppm,24%
same,% of peroxidation inhibition,[1]; 80 ppm,75%
same,level of protection against oxidation,stratum corneum,+44%
same,Endogen peroxides,fibroblasts (FHN); SIPS fibroblasts subjected to a second oxidant stress,161 +/− 14 UFA/million of cells
same,% Change/Control of endogen peroxides,"fibroblasts (FHN); after SIPS, not stressed again",−40%; p < 0.01
same,Endogen peroxides,"fibroblasts (FHN); after SIPS, not stressed again",61.2 +/− 2.6 UFA/million of cells
same,Change (%) of ATP vs after-stress control,human dermal fibroblasts [2]; 5 ppm,+76%; p <
same,ATP,human dermal fibroblasts [2]; 5 ppm,311 +/− 80 nM/0.1 μg protein
same,Change (%) of ATP vs after-stress control,human dermal fibroblasts [2]; 7 ppm,+460%; p <
same,ATP,human dermal fibroblasts [2]; 7 ppm,988 +/− 38 nM/0.1 μg protein
same,inhibition of β-galactosidase,β-galactosidase,not an inhibitor of β-galactosidase
same,gene expression of actin gamma 2 (ACTG2),fibroblasts; [4],increase in gene expression
same,gene expression of filament associated actin protein (AFAP1L1),fibroblasts; [4],increase in gene expression
same,gene expression of hyaluronic acid synthase 2,fibroblasts; [4],increase in gene expression
same,expression of JMJD6 gene,fibroblasts; [5],increased expression
same,expression of PLOD2 gene,fibroblasts; [5],increased expression
same,% of change of hyaluronic acid vs control,hyaluronic acid; 3 ppm,+23%
same,hyaluronic acid (AH),hyaluronic acid; 3 ppm,5322 +/− 157 ng of AH/10^6 cells
same,% of change of hyaluronic acid vs control,hyaluronic acid; 5 ppm,+33%
same,hyaluronic acid (AH),hyaluronic acid; 5 ppm,5758 +/− 82 ng of AH/10^6 cells
same,% of change of hyaluronic acid vs control,hyaluronic acid; 7 ppm,+41%
same,hyaluronic acid (AH),hyaluronic acid; 7 ppm,6101 +/− 320 ng of AH/10^6 cells
same,% of change of hyaluronic acid vs control,hyaluronic acid; 10 ppm,+46%
same,hyaluronic acid (AH),hyaluronic acid; 10 ppm,6331 +/− 365 ng of AH/10^6 cells
same,% change of gel surface vs control,human dermal fibroblasts [3]; 3 ppm,−17.5%; p < 0.01
same,Gel heterogeneity,human dermal fibroblasts [3]; 3 ppm,22.9 +/− 4.1 UA
same,Gel surface,human dermal fibroblasts [3]; 3 ppm,6.12 ± 1.94 cm^2
same,% change of gel surface vs control,human dermal fibroblasts [3]; 5 ppm,−21.5%; p < 0.01
same,Gel heterogeneity,human dermal fibroblasts [3]; 5 ppm,21.8 +/− 3.6 UA
same,Gel surface,human dermal fibroblasts [3]; 5 ppm,5.82 ± 1.69 cm^2
same,Change (%) of decorin vs control,decorin; 3 ppm,+15%; p < 0.03
same,Decorin,decorin; 3 ppm,47578 +/− 3587 pg/10^6 cell
same,Change (%) of decorin vs control,decorin; 5 ppm,+32%; p < 0.01
same,Decorin,decorin; 5 ppm,54419 +/− 4697 pg/10^6 cell
same,Change (%) of decorin vs control,decorin; 7 ppm,+41%; p < 0.01
same,Decorin,decorin; 7 ppm,58168 +/− 5912 pg/10^6 cell
same,% change/control of cell number,Keratinocytes; 1 ppm,+31%
same,"Cell number, mean (n = 3)",Keratinocytes; 1 ppm,4.83 ×10^5/35 mm dish
same,% change/control of cell number,Keratinocytes; 1.65 ppm,+38%
same,"Cell number, mean (n = 3)",Keratinocytes; 1.65 ppm,5.08 ×10^5/35 mm dish
same,Stimulation % of nidogen 1 biosynthesis,nidogen 1; 1 ppm,+28%
same,Stimulation % of nidogen 1 biosynthesis,nidogen 1; 2.5 ppm,+94%
